Here are results for 10 compounds from patent US12551475B2, “Methods and compositions for treating RNA viral infections” (Model Medicines, Inc., priority 2020, dated 2026).

Structures can show the parent of a compound that is named as a salt. Where two headings read alike, the source gives them in different places.

In series [1] the target is lysophosphatidic acyl transferase (LPAAT). The conditions noted are these: cytokine-activated LPAAT; read-out: IC50 (generation of phosphatidic acid); cited from earlier work.
Series [2] relates to SARS-CoV-2. As to the kind of experiment: microbe, parasite or virus in culture.
In series [3] the test system is SARS-CoV-2.
Series [4] can be described thus: Uninfected host cell cytotoxicity counter screen. In kind it is cell-based, human. The conditions noted are these: human, uninfected HeLa-ACE2 cells; uninfected HeLa-ACE2, 24 h. Here is the method:
Compounds were acoustically transferred into 1,536-well clear plates (Greiner Part. No. 789091). HeLa-ACE2 cells were maintained as described for the infection assay and seeded in the assay-ready plates at 400 cells/well in DMEM with 2% FBS and plates were incubated for 24 hours at 37 5% CO2. To assess cell viability, the Image-iT DEAD green reagent (Thermo Fisher) was used according to manufacturer instructions. Cells were fixed with 4% paraformaldehyde, and counterstained with DAPI. Fixed cells were imaged using the ImageXpress Micro Confocal High-Content Imaging System (Molecular Devices) with a 10× objective, and total live cells per well quantified in the acquired images using the Live Dead Application Module (MetaXpress).
Image analysis was carried out with MetaXpress (version 6.5.4.532). Primary in vitro screen and the host cell cytotoxicity counter screen data were uploaded to Genedata Screener, Version 16.0.3-Standard. Data were normalized to neutral (DMSO) […] inhibitor controls (2.5 μM remdesivir for antiviral effect and 10 μM puromycin for infected host cell toxicity). For the uninfected host cell cytotoxicity counter screen 40 μM puromycin (Sigma) was used as the positive control. For dose response experiments compounds were tested in technical triplicates on different assay plates and dose curves were fitted with the four parameter Hill Equation. Technical replicate data were analyzed using median condensing.
A general note: The purpose of a counterscreen is to sort out artefacts and off-target activity.

Series [5] has as its system B-RAFV^600E-expressing A375P melanoma cells. The following applies: cited from earlier work.
The subject of series [6] is wild-type B-RAF-expressing human foreskin fibroblasts. The following applies: cited from earlier work.
In series [7] the test system is cancer cell lines. The following applies: cited from earlier work.
Series [8] addresses 3CL Protease (SARS-CoV-2) (Severe acute respiratory syndrome coronavirus 2, UniProt P0DTD1). Put plainly: 3CL Protease (untagged, SARS-CoV-2) activity assay. It is filed as biochemical. The text has this:
The 3CL Protease Activity Assay described in this example is designed to measure 3CL Protease activity for screening and profiling applications, in a homogeneous assay with no time-consuming washing steps. The assay can be performed in a 96-well format, with purified untagged 3CL Protease, fluorogenic substrate, and 3CL Protease assay buffer for 100 enzyme reactions. 3CL inhibitor GC376 was included as a positive control. See https://bpsbioscience.com/3cl-protease-intagged-sars-cov-2-assay-kit-78042.
3CL Protease (SARS-CoV-2), no tag*; 3CL Protease Substrate (10 mM); 3CL Protease Assay Buffer; GC376, MW=507.5; 0.5 M DTT; Black, low binding microtiter plate; Plate sealing film. Fluorescent microplate reader capable of reading exc/em=360 nm/460 nm
All Samples and Controls were Tested in Duplicate.
• 1) Added 0.5 M DTT to 3CL Protease Assay Buffer so final DTT concentration was 1 mM. (e.g., added 10 μl of 0.5 M DTT to 5 ml assay buffer) (DTT was added just before use. Enough DTT-containing buffer as required for the assay was prepared. Remaining assay buffer was stored at −20° C.). • 2) Thaw 3CL Protease was thawed on ice. Upon first thaw, tube containing enzyme was briefly spun to recover the full content of the tube. Aliquoted 3CL Protease into single use aliquots. Stored remaining undiluted enzyme in aliquots at −80° C. • 3) Diluted 3CL Protease in Assay buffer (with 1 mM DTT) at 0.5 ng/μl (15 ng per reaction). • 4) Added 30 μl diluted 3CL Protease enzyme solution to wells designated as “Positive Control”, “Inhibitor Control” and “Test Sample”. Added 30 μl Assay buffer (with 1 mM DTT) to the “Blank” wells.
• 5) Diluted 50 μg GC376 in 200 μl water to obtain a 500 μM solution. Aliquoted and stored remaining solution in aliquots at −80° C. Added 10 μl GC376 (500 μM) to the wells labeled “Inhibitor Control”. • 6) Prepared the inhibitor solution.
(If the inhibitor compound was dissolved in DMSO, made a 100-fold higher concentration of the compound than the highest concentration tested in DMSO. Then made a 20-fold dilution in 1× assay buffer (at this step the compound concentration is 5-fold higher than the final concentration)).
If the inhibitor compound is dissolved in water, made a solution of the compound 5-fold higher than the final concentration in 3CL Protease assay buffer (with 1 mM DTT). For example, diluting 50 μg GC376 in 200 μl water (step 5) creates a 500 μM solution. Adding 10 μl to the assay (final volume 50 μl) results in a 100 μM final concentration.
7) Added 10 μl inhibitor to each well designated “Test Sample”. Added 10 μl 1× assay buffer or 5% DMSO in water (depending on which inhibitor solution is used) to “Blank” and “Positive Control” wells. • 8) Preincubated enzyme with the inhibitor for 30 min at room temperature with slow shaking. • 9) Diluted 10 mM 3CL Protease substrate 1:50 in assay buffer with DTT, to make a 200 μM solution. Diluted only enough as was required for the assay. • 10) Started reaction by adding 10 μl of the substrate solution to each well (Final concentration of the 3CL Protease substrate in a 50 μl reaction was 40 μM). • 11) Incubated for 4 hours at room temperature with slow shaking. Sealed the plate with the plate sealer. Measured the fluorescence intensity in a microtiter plate-reading fluorimeter capable of excitation at a wavelength 360 nm and detection of emission at a wavelength 460 nm. The fluorescence intensity can also be measured kinetically. “Blank” value was subtracted from all other values. Data Analysis
3CL Protease activity assays were performed in duplicates. The fluorescence data were analyzed using the computer software, Graphpad Prism. In the absence of the compound, the fluorescence (Ft) in each data set was defined as 100% activity. In the absence of the 3CL Protease, the fluorescence (Fb) in each data set was defined as 0% activity. […]

In series [9] the test system is MCF-7 cell line. The conditions noted are these: read-out: IC50 (antitumor activity in vitro); cited from earlier work.
The subject of series [10] is HeLa cells. The conditions noted are these: read-out: IC50 (apoptosis); cited from earlier work.
The subject of series [11] is thymocytes. The conditions noted are these: read-out: IC50 (apoptosis); cited from earlier work.
In series [12] the test system is Renal 1983 cell line. The following applies: read-out: IC50 (antitumor activity in vitro); cited from earlier work.
The conditions of series [13]: in vivo; cited from earlier work.
Series [14] relates to SARS-CoV-2. The conditions noted are these: ReFRAME screen, same methods (Bakowski et al, 2020); cited from earlier work.
Setting [15] is: Severe acute respiratory syndrome coronavirus 2, HeLa-ACE2, 24 h.

Take `C[C@@H](O)CCCCn1c(=O)c2c(ncn2C)n(C)c1=O` [(R)-LSF, 3,7-dihydro-1-[(5R)-5-hydroxyhexyl]-3,7-dimethyl-1H-purine-2,6-dione]: in series [1], the IC50 is 0.6 µM.

For `Cc1c2c(nn1C)CSCc1cc(n(C)n1)CSc1cc(c3ccccc3c1)OCCCc1c(C(=O)O)n(C)c3c-2c(Cl)ccc13` [AZD-5991], the EC50 (commonly the midpoint of the concentration-response curve) in series [2] (setting [15]) was found to be 8.81 µM. Also, in series [3], the “SI (selectivity index, CC50/EC50)” value is on record as 0.06 and the “activity in the HeLa-ACE2 cell-based SARS-CoV-2 assay (in words)” value is “demonstrated activity”. In addition, in series [4], the 50% cytotoxic concentration (CC50) (in general, the concentration giving 50% cytotoxicity) at 24 h is 0.527 µM.

For the compound `CC(C)(C)c1nc(-c2cccc(NS(=O)(=O)c3c(F)cccc3F)c2F)c(-c2ccnc(N)n2)s1` [Dabrafenib, N-[3-[5-(2-amino-4-pyrimidinyl)-2-(1,1-dimethylethyl)-4-thiazolyl]-2-fluorophenyl]-2,6-difluorobenzenesulfonamide], the “EC200 (caspase-3/7 activation)” value was 71 nM in series [5] and > 10,000 nM in series [6]. In addition, the GI50 – broadly, the concentration giving 50% growth inhibition – is < 0.2 µM in series [7] (16 cancer cell lines expressing mutant B-RAFV600E); < 7 µM in [7] (19 cell lines expressing wild-type Ras and RAF); < 0.03 µM in [7] (five cell lines expressing other B-RAF mutants); > 10 µM in series [7] (four B-RAFV600E lines, 133 wild-type Ras and Raf lines, 18 mutant Ras lines not inhibited).

With `COc1ccc2c3c1O[C@H]1C[C@@H](O)C=C[C@@]31CCN(C)C2` [Galantamine, (4aS,6R,8aS)-4a,5,9,10,11,12-hexahydro-3-methoxy-11-methyl-6H-benzofuro[3a,3,2-ef][2]benzazepin-6-ol], in series [8] (Galantamine 0.009 μM), the “3CL Protease Activity (Fluorescence count) Repeat1” value is listed as 759 and the “3CL Protease Activity (Fluorescence count) Repeat2” value worked out at 768. In series [8] (Galantamine 0.018 μM), the “3CL Protease Activity (Fluorescence count) Repeat1” value came to 746 and the “3CL Protease Activity (Fluorescence count) Repeat2” value was 752. Also, in series [8] (Galantamine 0.070 μM), the “3CL Protease Activity (Fluorescence count) Repeat1” value is listed as 785 and the “3CL Protease Activity (Fluorescence count) Repeat2” value worked out at 783. Moreover, in series [8] (Galantamine 0.14 μM), the “3CL Protease Activity (Fluorescence count) Repeat1” value is recorded as 737 and the “3CL Protease Activity (Fluorescence count) Repeat2” value was 760. In series [8] (Galantamine 0.28 μM), the “3CL Protease Activity (Fluorescence count) Repeat1” value was found to be 761 and the “3CL Protease Activity (Fluorescence count) Repeat2” value was found to be 797. In addition, in series [8] (Galantamine 4.5 μM), the “3CL Protease Activity (Fluorescence count) Repeat1” value worked out at 593 and the “3CL Protease Activity (Fluorescence count) Repeat2” value worked out at 543. Further, in [8] (read-out: % Activity Repeat1), the activity at 0.009 µM was determined as 98%, the activity at 0.018 µM was 96%, the activity at 0.07 µM worked out at 102% and the activity at 0.14 µM amounted to 95%. In series [8] (read-out: % Activity Repeat1), the activity at 0.28 µM came out at 98% and the activity at 4.5 µM was 74%. Also, in series [8] (read-out: % Activity Repeat2), the activity at 0.009 µM came out at 99%, the activity at 0.018 µM came to 97%, the activity at 0.07 µM worked out at 102% and the activity at 0.14 µM came out at 98%. Moreover, in [8] (read-out: % Activity Repeat2), the activity at 0.28 µM came out at 104% and the activity at 4.5 µM is 66%. The “effect on 3CL Protease activity (in words)” value in series [8] (test range 0.009-4.5 μM) is “inhibited 3CL Protease activity”.

Regarding `COc1ccc2c(c1OC)C(=O)O[C@@H]2[C@H]1c2c(cc3c(c2OC)OCO3)CCN1C` [Noscapine, (3S)-6,7-dimethoxy-3-[(5R)-5,6,7,8-tetrahydro-4-methoxy-6-methyl-1,3-dioxolo[4,5-g]isoquinolin-5-yl]-1(3H)-isobenzofuranone, monohydrochloride], the IC50 in [9] is 42.3 µM; in series [10], 25 µM; in series [11] it was 10 µM; in [12] it was 39.1 µM.

In series [2] (setting [15]), `CCC(CC)COC(=O)[C@H](C)N[P@](=O)(OC[C@H]1O[C@@](C#N)(c2ccc3c(N)ncnn23)[C@H](O)[C@@H]1O)Oc1ccccc1` [Remdesivir] registered an EC50 of 0.13 µM. In series [3], the “increase in EC50 from MOI=1 to MOI=26” value was 2.7 fold. For the same compound, the “half-life (t 1/2)” value in series [13] is 1 h.

On to `Nc1ncnc2c1nc(Cl)n2[C@@H]1O[C@@H]2COP(=O)(O)O[C@H]2[C@H]1O` [Tocladesine, 8-chloroadenosine 3′,5′-monophosphate], for which the EC50 in [2] (setting [15]) is > 9.59 µM. Moreover, in series [3], the “SI (selectivity index, CC50/EC50)” value is > 4.15 and the “activity in the HeLa-ACE2 cell-based SARS-CoV-2 assay (in words)” value is listed as “active against COVID-19”. In addition, the “activity in the HeLa-ACE2 cell-based SARS-CoV-2 assay (in words)” value in series [3] (listed as tocladesine) was “demonstrated activity”. Moreover, the CC50 at 24 h in series [4] is > 39.8 µM.

For the compound `Cc1cccc(/C=N/Nc2cc(N3CCOCC3)nc(OCCc3ccccn3)n2)c1` [apilimod], the Emax in series [2] (Severe acute respiratory syndrome coronavirus 2, HeLa-ACE2, read-out: maximal efficacy (uninfected cells at the highest effective concentrations)) fell in the range of 85 to 90%. The “increase in EC50 from MOI=1 to MOI=26” value in series [3] is 3.7 fold.

Turning to `COc1ccc(C[C@H](N)C(=O)N[C@H]2[C@@H](O)[C@H](n3cnc4c(N(C)C)ncnc43)O[C@@H]2CO)cc1` [puromycin], the concentration for a half-maximal effect (EC50) in series [2] (Severe acute respiratory syndrome coronavirus 2, HeLa-ACE2, read-out: EC50 (total cell numbers per well, compound toxicity in the context of infection)) is 0.547 ± 0.027 µM.

As for `O=C(c1ccc(OCCN2CCCCC2)cc1)c1c(-c2ccc(O)cc2)sc2cc(O)ccc12` [raloxifene], in series [14], the EC50 is 4.13 µM.
